Results reported in US9505750B2, “5-aminocyclylmethyl-oxazolidin-2-one derivatives” (priority 2007, dated 2016).
In brackets after ≈: the same amount, converted by molar mass.

The compounds below were run on M. catarrhalis A894 (assay: MIC determination by microdilution in cation-adjusted Mueller-Hinton Broth (NCCLS)). Details: Moraxella catarrhalis, pH 7.2-7.3.
Format: cell-based
Experimental: These assays have been performed following the description given in “Methods for dilution Antimicrobial Susceptibility Tests for Bacteria that Grow Aerobically, 4th ed.; Approved standard: NCCLS Document M7-A4; National Committee for Clinical Laboratory Standards: Villanova, Pa., USA, 1997”. Minimal inhibitory concentrations (MICs; mg/l) were determined in cation-adjusted Mueller-Hinton Broth (BBL) by a microdilution method following NCCLS guidelines (National Committee for Clinical Laboratory Standards. Methods for Dilution Antimicrobial Susceptibility). The pH of the test medium was 7.2-7.3. All Example compounds were tested against several Gram-positive and Gram-negative bacteria.

| MIC | SMILES |
| --- | --- |
| ≤ 0.031 µg/mL | COc1ccc2ncnc(O[C@H]3C[C@@H](CN)N(C[C@@H]4CN(c5ccc6c(c5)NC(=O)CS6)C(=O)O4)C3)c2c1 [Example 15, 6-{(R)-5-[(2S,4S)-2-aminomethyl-4-(6-methoxy-quinazolin-4-yloxy)-pyrrolidin-1-ylmethyl]-2-oxo-oxazolidin-3-yl}-4H-benzo[1,4]thiazin-3-one] |
| ≤ 0.031 µg/mL | COc1ccc2ncnc(O[C@@H]3CN(C[C@@H]4CN(c5ccc6c(c5)NC(=O)CS6)C(=O)O4)C[C@H]3N)c2c1 (relative stereo) [Example 18, 6-{(R)-5-[(3R*,4R*)-3-amino-4-(6-methoxy-quinazolin-4-yloxy)-pyrrolidin-1-ylmethyl]-2-oxo-oxazolidin-3-yl}-4H-benzo[1,4]thiazin-3-one] |
| 0.25 µg/mL (≈ 0.432 µM) | COc1ccc2ncnc(O[C@H]3C[C@@H](CNC(C)=O)N(C[C@@H]4CN(c5ccc6c(c5)NC(=O)CS6)C(=O)O4)C3)c2c1 [Example 17, N-{(2S,4S)-4-(6-methoxy-quinazolin-4-yloxy)-1-[(R)-2-oxo-3-(3-oxo-3,4-dihydro-2H-benzo[1,4]thiazin-6-yl)-oxazolidin-5-ylmethyl]-pyrrolidin-2-ylmethyl}-acetamide] |
| ≤ 0.031 µg/mL | COc1ccc2ncnc(O[C@H]3C[C@@H](CN=[N+]=[N-])N(C[C@@H]4CN(c5ccc6c(c5)NC(=O)CS6)C(=O)O4)C3)c2c1 [Example 6, 6-{(R)-5-[(2S,4S)-2-azidomethyl-4-(6-methoxy-quinazolin-4-yloxy)-pyrrolidin-1-ylmethyl]-2-oxo-oxazolidin-3-yl}-4H-benzo[1,4]thiazin-3-one] |
| 8 µg/mL (≈ 17.3 µM) | COc1ccc2nccc(OC3CN(C[C@@H]4CN(c5ccc6c(c5)OCCO6)C(=O)O4)C3)c2c1 [Example 44, (R)-3-(2,3-dihydro-benzo[1,4]dioxin-6-yl)-5-[3-(6-methoxy-quinolin-4-yloxy)-azetidin-1-ylmethyl]-oxazolidin-2-one] |
| ≤ 0.031 µg/mL | COc1ccc2nccc(NC3CN(C[C@@H]4CN(c5ccc6c(c5)NC(=O)CO6)C(=O)O4)C3)c2c1 [Example 25, 6-{(R)-5-[3-(6-methoxy-quinolin-4-ylamino)-azetidin-1-ylmethyl]-2-oxo-oxazolidin-3-yl}-4H-benzo[1,4]oxazin-3-one] |
| ≤ 0.031 µg/mL | COc1ccc2ncnc(OC3CCN(C[C@@H]4CN(c5ccc6c(c5)NC(=O)CO6)C(=O)O4)CC3)c2c1 [Example 31, 6-{(R)-5-[4-(6-methoxy-quinazolin-4-yloxy)-piperidin-1-ylmethyl]-2-oxo-oxazolidin-3-yl}-4H-benzo[1,4]oxazin-3-one] |
| ≤ 0.031 µg/mL | COc1ccc2ncnc(O[C@H]3CN(C[C@@H]4CN(c5ccc6c(c5)NC(=O)CS6)C(=O)O4)C[C@H]3O)c2c1 (relative stereo) [Example 21, 6-{(R)-5-[(3R*,4S*)-3-hydroxy-4-(6-methoxy-quinazolin-4-yloxy)-pyrrolidin-1-ylmethyl]-2-oxo-oxazolidin-3-yl}-4H-benzo[1,4]thiazin-3-one] |
| ≤ 0.031 µg/mL | COc1ccc2ncc(F)c(CNC3CN(C[C@@H]4CN(c5ccc6c(c5)NC(=O)CO6)C(=O)O4)C3)c2c1 [Example 28, 6-((R)-5-{3-[(3-fluoro-6-methoxy-quinolin-4-ylmethyl)-amino]-azetidin-1-ylmethyl}-2-oxo-oxazolidin-3-yl)-4H-benzo[1,4]oxazin-3-one] |
| ≤ 0.031 µg/mL | COc1ccc2nccc(CCC3CCN(C[C@@H]4CN(c5ccc6c(c5)NC(=O)CS6)C(=O)O4)C3)c2n1 (mixture of isomers) [Example 10, 6-((R)-5-{(RS)-3-[2-(6-methoxy-[1,5]naphthyridin-4-yl)-ethyl]-pyrrolidin-1-ylmethyl}-2-oxo-oxazolidin-3-yl)-4H-benzo[1,4]thiazin-3-one] |
| 0.063 µg/mL (≈ 0.128 µM) | COc1cnc2cccc(CNC3CN(C[C@@H]4CN(c5ccc6c(c5)NC(=O)CO6)C(=O)O4)C3)c2n1 [Example 34, 6-((R)-5-{3-[(3-methoxy-quinoxalin-5-ylmethyl)-amino]-azetidin-1-ylmethyl}-2-oxo-oxazolidin-3-yl)-4H-benzo[1,4]oxazin-3-one] |
| 0.25 µg/mL (≈ 0.443 µM) | COc1ccc2ncnc(O[C@@H]3CN(C[C@@H]4CN(c5ccc6c(c5)NC(=O)CS6)C(=O)O4)C[C@H]3NC(C)=O)c2c1 (relative stereo) [Example 32, N-{(3R*,4R*)-4-(6-methoxy-quinazolin-4-yloxy)-1-[(R)-2-oxo-3-(3-oxo-3,4-dihydro-2H-benzo[1,4]thiazin-6-yl)-oxazolidin-5-ylmethyl]-pyrrolidin-3-yl}-acetamide] |
| 0.063 µg/mL (≈ 0.132 µM) | COc1ccc2ncnc(OCC3CN(C[C@@H]4CN(c5ccc6c(c5)OCCO6)C(=O)O4)C3)c2c1 [Example 30, (R)-3-(2,3-dihydro-benzo[1,4]dioxin-6-yl)-5-[3-(6-methoxy-quinazolin-4-yloxymethyl)-azetidin-1-ylmethyl]-oxazolidin-2-one] |
| ≤ 0.031 µg/mL | COc1cnc2cccc(C=C3CCN(C[C@@H]4CN(c5ccc6c(c5)NC(=O)CS6)C(=O)O4)CC3)c2n1 [Example 12, 6-{(R)-5-[4-(3-methoxy-quinoxalin-5-ylmethylene)-piperidin-1-ylmethyl]-2-oxo-oxazolidin-3-yl}-4H-benzo[1,4]thiazin-3-one] |
| ≤ 0.031 µg/mL | COc1ccc2nccc(NC(=O)C3CCN(C[C@@H]4CN(c5ccc6c(c5)NC(=O)CS6)C(=O)O4)C3)c2n1 (mixture of isomers) [Example 8, (RS)-1-[(R)-2-oxo-3-(3-oxo-3,4-dihydro-2H-benzo[1,4]thiazin-6-yl)-oxazolidin-5-ylmethyl]-pyrrolidine-3-carboxylic acid (6-methoxy-[1,5]naphthyridin-4-yl)-amide] |
| ≤ 0.031 µg/mL | COc1ccc2ncnc(O[C@@H]3CCN(C[C@@H]4CN(c5ccc6c(c5)NC(=O)CS6)C(=O)O4)C3)c2c1 [Example 2, 6-{(R)-5-[(R)-3-(6-methoxy-quinazolin-4-yloxy)-pyrrolidin-1-ylmethyl]-2-oxo-oxazolidin-3-yl}-4H-benzo[1,4]thiazin-3-one] |
| ≤ 0.031 µg/mL | COc1ccc2ncnc(O[C@@H]3CN(C[C@@H]4CN(c5ccc6c(c5)NC(=O)CS6)C(=O)O4)C[C@H]3n3ccnn3)c2c1 (relative stereo) [Example 16, 6-{(R)-5-[(3R*,4R*)-3-(6-methoxy-quinazolin-4-yloxy)-4-[1,2,3]triazol-1-yl-pyrrolidin-1-ylmethyl]-2-oxo-oxazolidin-3-yl}-4H-benzo[1,4]thiazin-3-one] |
| ≤ 0.031 µg/mL | COc1ccc2nccc(CNC3CN(C[C@@H]4CN(c5ccc6c(c5)NC(=O)CO6)C(=O)O4)C3)c2n1 [Example 27, 6-((R)-5-{3-[(6-methoxy-[1,5]naphthyridin-4-ylmethyl)-amino]-azetidin-1-ylmethyl}-2-oxo-oxazolidin-3-yl)-4H-benzo[1,4]oxazin-3-one] |
| ≤ 0.031 µg/mL | COc1ccc2ncnc(O[C@@H]3CN(C[C@@H]4CN(c5ccc6c(c5)NC(=O)CS6)C(=O)O4)C[C@H]3O)c2c1 (relative stereo) [Example 22, 6-{(R)-5-[(3R*,4R*)-3-hydroxy-4-(6-methoxy-quinazolin-4-yloxy)-pyrrolidin-1-ylmethyl]-2-oxo-oxazolidin-3-yl}-4H-benzo[1,4]thiazin-3-one] |
| ≤ 0.031 µg/mL | COc1ccc2nccc(NC3CCN(C[C@@H]4CN(c5ccc6c(c5)NC(=O)CS6)C(=O)O4)CC3)c2n1 [Example 40, 6-{(R)-5-[4-(6-methoxy-[1,5]naphthyridin-4-ylamino)-piperidin-1-ylmethyl]-2-oxo-oxazolidin-3-yl}-4H-benzo[1,4]thiazin-3-one] |
| ≤ 0.031 µg/mL | COc1ccc2nccc(NC(=O)C3CN(C[C@@H]4CN(c5ccc6c(c5)NC(=O)CS6)C(=O)O4)C3)c2n1 [Example 7, 1-[(R)-2-oxo-3-(3-oxo-3,4-dihydro-2H-benzo[1,4]thiazin-6-yl)-oxazolidin-5-ylmethyl]-azetidine-3-carboxylic acid (6-methoxy-[1,5]naphthyridin-4-yl)-amide] |
| ≤ 0.031 µg/mL | COc1ccc2nccc(NC3CN(C[C@@H]4CN(c5ccc6c(c5)NC(=O)CS6)C(=O)O4)C3)c2n1 [Example 36, 6-{(R)-5-[3-(6-methoxy-[1,5]naphthyridin-4-ylamino)-azetidin-1-ylmethyl]-2-oxo-oxazolidin-3-yl}-4H-benzo[1,4]thiazin-3-one] |
| 0.063 µg/mL (≈ 0.107 µM) | COc1ccc2ncnc(O[C@H]3C[C@@H](Cn4ccnn4)N(C[C@@H]4CN(c5ccc6c(c5)NC(=O)CS6)C(=O)O4)C3)c2c1 [Example 19, 6-{(R)-5-[(2S,4S)-4-(6-methoxy-quinazolin-4-yloxy)-2-[1,2,3]triazol-1-ylmethyl-pyrrolidin-1-ylmethyl]-2-oxo-oxazolidin-3-yl}-4H-benzo[1,4]thiazin-3-one] |
| 0.063 µg/mL (≈ 0.129 µM) | COc1ccc2nccc(CNC3CN(C[C@@H]4CN(c5ccc6c(c5)NC(=O)CO6)C(=O)O4)C3)c2c1 [Example 29, 6-((R)-5-{3-[(6-methoxy-quinolin-4-ylmethyl)-amino]-azetidin-1-ylmethyl}-2-oxo-oxazolidin-3-yl)-4H-benzo[1,4]oxazin-3-one] |
| 0.5 µg/mL | COc1cnc2cccc(C(O)C3(O)CCN(C[C@@H]4CN(c5ccc6c(c5)NC(=O)CS6)C(=O)O4)CC3)c2n1 (mixture of isomers) [Example 13, 6-((R)-5-{4-hydroxy-4-[(RS)-hydroxy-(3-methoxy-quinoxalin-5-yl)-methyl]-piperidin-1-ylmethyl}-2-oxo-oxazolidin-3-yl)-4H-benzo[1,4]thiazin-3-one] |
| ≤ 0.031 µg/mL | COc1ccc2ncnc(O[C@H]3CCN(C[C@@H]4CN(c5ccc6c(c5)NC(=O)CS6)C(=O)O4)C3)c2c1 [Example 3, 6-{(R)-5-[(S)-3-(6-methoxy-quinazolin-4-yloxy)-pyrrolidin-1-ylmethyl]-2-oxo-oxazolidin-3-yl}-4H-benzo[1,4]thiazin-3-one] |
| ≤ 0.031 µg/mL | COc1ccc2ncnc(O[C@H]3C[C@@H](CO)N(C[C@@H]4CN(c5ccc6c(c5)NC(=O)CS6)C(=O)O4)C3)c2c1 [Example 5, 6-{(R)-5-[(2S,4S)-2-hydroxymethyl-4-(6-methoxy-quinazolin-4-yloxy)-pyrrolidin-1-ylmethyl]-2-oxo-oxazolidin-3-yl}-4H-benzo[1,4]thiazin-3-one] |
